Experimental data as given in PubChem BioAssay (NCI).
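Step 1: Grow cells in 96-well plates. Step 2: Expose to compound for 48 hours at 5 concentrations. Step 3: Interpolate endpoints linearly; if unreached, use highest concentration. TGI: total growth inhibition.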

How the values were obtained:
Test in all cases: growth of human tumour cells (NCI), 48 h
[1] = system: HCC-2998 colon
[2] = system: OVCAR-3 ovarian
[3] = system: RPMI-8226 leukemia
[4] = system: UO-31 renal
[5] = system: UACC-62 melanoma
[6] = system: SK-MEL-28 melanoma
[7] = system: A498 renal
[8] = system: NCI-H460 lung
[9] = system: ACHN renal
[10] = system: SW-620 colon
[11] = system: OVCAR-5 ovarian
[12] = system: LOX IMVI melanoma
[13] = system: LXFL 529 NSCLC
[14] = system: A549 NSCLC
[15] = system: UACC-257 melanoma
[16] = system: SN12C renal
[17] = system: DMS 114 small cell lung
[18] = system: HCT-15 colon
[19] = system: HOP-18 NSCLC
[20] = system: SK-MEL-5 melanoma
[21] = system: CCRF-CEM leukemia
[22] = system: M14 melanoma
[23] = system: NCI-H23 lung
[24] = system: NCI-H226 lung
[25] = system: OVCAR-8 ovarian
[26] = system: HT29 colon
[27] = system: IGROV1 ovarian
[28] = system: HOP-92 NSCLC
[29] = system: KM20L2 colon
[30] = system: DLD-1 colon
[31] = system: M19-MEL melanoma
[32] = system: U251 CNS
[33] = system: SF-295 CNS
[34] = system: SR leukemia
[35] = system: MOLT-4 leukemia
[36] = system: SK-OV-3 ovarian
[37] = system: CAKI-1 renal
[38] = system: K-562 leukemia
[39] = system: HCT-116 colon
[40] = system: TK-10 renal
[41] = system: SNB-19 CNS
[42] = system: DMS 273 small cell lung
[43] = system: MALME-3M melanoma
[44] = system: SF-268 CNS
[45] = system: 786-0 renal
[46] = system: OVCAR-4 ovarian
[47] = system: COLO 205 colon
[48] = system: HL-60(TB) leukemia
[49] = system: HOP-62 NSCLC
[50] = system: SK-MEL-2 melanoma
[51] = system: SF-539 CNS
[52] = system: RXF 393 renal
[53] = system: NCI-H522 lung
[54] = system: SNB-75 CNS
[55] = system: KM12 colon
[56] = system: EKVX NSCLC

Work on `Cc1ccc(S(=O)(=O)OCC23CCC(C2)C2CC23)cc1` (stereo unspecified) yielded a TGI [1] of over 100 µM, a TGI [2] of over 100 µM and a TGI [3] of over 100 µM. It also gave a TGI [4] of over 100 µM, a TGI [5] of over 100 µM and a TGI [6] of over 100 µM. The TGI [7] was over 100 µM, the TGI [8] was over 100 µM and the TGI [9] was over 100 µM. It also gave a TGI [10] of over 100 µM, a TGI [11] of over 100 µM and a TGI [12] of over 100 µM. It also gave a TGI [13] of over 100 µM, a TGI [14] of over 100 µM and a TGI [15] of over 100 µM. The TGI [16] was over 100 µM, the TGI [17] was over 100 µM and the TGI [18] was over 100 µM. The TGI [19] was over 100 µM, the TGI [20] was over 100 µM and the TGI [21] was over 100 µM. The TGI [22] was over 100 µM, the TGI [23] was over 100 µM and the TGI [24] was over 100 µM. It also gave a TGI [25] of over 100 µM, a TGI [26] of over 100 µM and a TGI [27] of over 100 µM. The TGI [28] was 94.8 µM, the TGI [29] was over 100 µM and the TGI [30] was over 100 µM. It also gave a TGI [31] of over 100 µM, a TGI [32] of over 100 µM and a TGI [33] of over 100 µM. The TGI [34] was over 100 µM, the TGI [35] was over 100 µM and the TGI [36] was over 100 µM. For the same molecule, the TGI [37] was over 100 µM, the TGI [38] was over 100 µM and the TGI [39] was over 100 µM. For the same molecule, the TGI [40] was over 100 µM, the TGI [41] was over 100 µM and the TGI [42] was over 100 µM. For the same molecule, the TGI [43] was over 100 µM, the TGI [44] was over 100 µM and the TGI [45] was over 100 µM. It also gave a TGI [46] of over 100 µM, a TGI [47] of over 100 µM and a TGI [48] of 98.8 µM. It also gave a TGI [49] of over 100 µM.

Molecule `Cc1ccc(-c2cc(=O)c3cc4c(cc3[nH]2)OCO4)cc1` has a TGI [1] of 5.56 µM, a TGI [2] of over 100 µM and a TGI [3] of over 100 µM. It also gave a TGI [4] of over 100 µM, a TGI [5] of over 39.1 µM and a TGI [6] of over 100 µM. For the same molecule, the TGI [7] was 10.5 µM, the TGI [8] was 3.82 µM and the TGI [9] was over 100 µM. It also gave a TGI [10] of over 100 µM, a TGI [11] of over 82.3 µM and a TGI [12] of over 100 µM. The TGI [13] was 21.8 µM, the TGI [50] was 14.2 µM and the TGI [14] was over 63.4 µM. The TGI [15] was over 100 µM, the TGI [51] was 4.54 µM and the TGI [16] was over 100 µM. It also gave a TGI [52] of 9.94 µM, a TGI [53] of 4.83 µM and a TGI [17] of over 100 µM. For the same molecule, the TGI [18] was 6.64 µM, the TGI [19] was 35.2 µM and the TGI [20] was 5.6 µM. The TGI [21] was over 100 µM, the TGI [22] was over 22 µM and the TGI [23] was 3.29 µM. It also gave a TGI [24] of 8.66 µM, a TGI [25] of over 100 µM and a TGI [26] of over 100 µM. It also gave a TGI [27] of over 100 µM, a TGI [28] of 71.2 µM and a TGI [29] of 3.43 µM. It also gave a TGI [30] of over 100 µM, a TGI [31] of over 100 µM and a TGI [32] of 10.5 µM. For the same molecule, the TGI [33] was 11.6 µM, the TGI [34] was over 40.4 µM and the TGI [35] was over 42.6 µM. The TGI [36] was 28.9 µM, the TGI [37] was over 100 µM and the TGI [38] was over 100 µM. It also gave a TGI [39] of over 100 µM, a TGI [54] of 35 µM and a TGI [40] of over 60.6 µM. For the same molecule, the TGI [41] was over 100 µM, the TGI [55] was over 100 µM and the TGI [42] was over 25 µM. For the same molecule, the TGI [56] was over 100 µM, the TGI [43] was over 33.4 µM and the TGI [44] was over 72.1 µM. For the same molecule, the TGI [45] was 14.6 µM, the TGI [46] was over 100 µM and the TGI [48] was 2.77 µM. For the same molecule, the TGI [49] was 20.5 µM.

`N#CC1(C#N)C(c2ccc(C3C(C#N)(C#N)C3(C#N)C#N)cc2)C1(C#N)C#N` gave a TGI [1] of over 100 µM, a TGI [2] of over 100 µM and a TGI [3] of over 100 µM. For the same molecule, the TGI [4] was over 100 µM, the TGI [5] was over 100 µM and the TGI [6] was over 100 µM. The TGI [8] was over 100 µM, the TGI [9] was over 100 µM and the TGI [10] was over 100 µM. The TGI [11] was over 100 µM, the TGI [12] was over 100 µM and the TGI [13] was over 100 µM. It also gave a TGI [50] of over 100 µM, a TGI [14] of over 100 µM and a TGI [15] of over 100 µM. It also gave a TGI [51] of over 100 µM, a TGI [16] of over 100 µM and a TGI [52] of over 100 µM. It also gave a TGI [53] of over 100 µM, a TGI [17] of over 100 µM and a TGI [18] of over 100 µM. The TGI [19] was over 100 µM, the TGI [20] was over 100 µM and the TGI [21] was over 100 µM. For the same molecule, the TGI [22] was over 100 µM, the TGI [23] was over 100 µM and the TGI [25] was over 100 µM. It also gave a TGI [26] of over 100 µM, a TGI [27] of over 100 µM and a TGI [28] of over 100 µM. For the same molecule, the TGI [29] was over 100 µM, the TGI [30] was over 100 µM and the TGI [31] was over 100 µM. It also gave a TGI [32] of over 100 µM, a TGI [33] of over 100 µM and a TGI [35] of over 100 µM. For the same molecule, the TGI [36] was over 100 µM, the TGI [37] was over 100 µM and the TGI [38] was over 100 µM. The TGI [54] was over 100 µM, the TGI [40] was over 100 µM and the TGI [41] was over 100 µM. For the same molecule, the TGI [55] was over 100 µM, the TGI [42] was over 100 µM and the TGI [56] was over 100 µM. The TGI [43] was over 100 µM, the TGI [44] was over 100 µM and the TGI [45] was over 100 µM. For the same molecule, the TGI [46] was over 100 µM, the TGI [47] was over 100 µM and the TGI [48] was over 100 µM. It also gave a TGI [49] of over 100 µM.
